# Legend:
# [1] = Microsomal intrinsic clearance, human liver microsomes; format: in vitro ADME; conditions: human liver microsomes (pooled), pH 7.4, 45 min, NADPH
# Procedure: (§1) The compounds of the invention (1 μM) were incubated in suspension with human (rat or mouse) liver microsomes pooled from multiple donors (>10) and samples taken at 5 time points over the course of a 45 min experiment and analysed by LC MS/MS. Microsomes (final protein concentration 0.5 mg/mL), 0.1 M phosphate buffer pH 7.4 and test compound (final substrate concentration 1 μM; final DMSO concentration 0.25%) were pre-incubated at 37° C. prior to the addition of NADPH (final concentration 1 mM) to initiate the reaction. A minus cofactor control incubation was included for each compound tested where 0.1 M phosphate buffer pH 7.4 is added instead of NADPH (minus NADPH). All incubations were performed in duplicate for each test compound and the results averaged. Each compound is incubated for 0, 5, 15, 30 and 45 min. The control (minus NADPH) was incubated for 45 min only. The reactions were stopped by transferring incubate into acetonitrile at the appropriate time points, in a 1:3 ratio.
# (§2) The termination plates were centrifuged at 3,000 rpm for 20 min at 4° C. to precipitate the protein. Following protein precipitation, the sample supernatants were combined in cassettes of up to 4 compounds, internal standard added and samples analysed by LC-MS/MS. From a plot of ln peak area ratio (compound peak area/internal standard peak area) against time, the gradient of the line is determined. Subsequently, half-life (t½) and intrinsic clearance (CLint) are calculated using the equations below: Elimination rate constant (k)=(−gradient) Half-life (t1/2)(min)=0.693/k Intrinsic clearance (i.e. CLint)(μL/min/mg protein)=V×0.693/t1/2 where V=Incubation volume (μL)/Microsomal protein (mg)
# (§3) Verapamil and dextromethorphan were included in the assay as controls and if the values for these compounds were not within the specified limits the results were rejected and the experiment repeated.
# [2] = Microsomal intrinsic clearance, mouse liver microsomes; format: in vitro ADME; conditions: mouse liver microsomes (pooled), pH 7.4, 45 min, NADPH
# Procedure: as §1, §2, §3
# [3] = PK parameters in mouse (IV and PO); format: in vivo; conditions: for PK parameters (mouse): F: 10 mg/kg IV and 10 mg/kg PO; for clearance / half-life: male, Swiss Albino, plasma, IV arm, 10 mg/kg; for clearance: read-out: PK parameters (mouse): Cl; for half-life: read-out: PK parameters (mouse): t1/2
# Procedure: Swiss Albino male mice or Sprague Dawley rats (TCGLS, India) were kept under a 12/12 h light/dark cycle, 22±2° C. temp, 50±20% RH with free access to food and water ad libitum. Mice were selected randomly/based on body weight/age and fasted for 4 h before dosing and until 2 h after dosing. Three mice were used per route of administration. […]
# (§4) Blood samples were taken (mice 50 μL, rat 100 μL) at regular timepoints from the saphenous vein (conscious restrained animals) and collected into heparinized capillary tubes and transferred into 0.5 mL microcentrifuge tubes. Samples were processed by centrifugation at 1640 g for 10 min at +4° C. within 30 min of collection and stored at −20° C. until bioanalysis. All samples were mixed with ice-cold acetonitrile containing an internal standard, centrifuged at 4000 rpm for 15 min at 15° C. Supernatant was then half diluted in water and analysed by LCMS/MS analysis to determine analyte peak area/IS peak area (the ratio). Concentration (plasma) of the compounds of the invention was determined by reference to a calibration curve. Pharmacokinetic parameters (Cmax, Tmax, AUC, t1/2, CL, Vd, BA) were calculated using WinNonLin, using non-compartmental analysis (Phoenix, Version 6.3). The pharmacokinetic parameters for compounds shown in Table 2 support that compounds of the invention have pharmacokinetic properties associated with treatment of malaria via the oral route and that compounds have substantially longer half-lives than the reference compound.
# [4] = system: Plasmodium falciparum (3D7); assay: In-vitro potency against P. falciparum (3D7 strain), SYBR Green growth inhibition; format: cell-based; conditions: P. falciparum 3D7, asexual intraerythrocytic stage, SYBR Green fluorescence
# Procedure: Cultures of the widely-used malaria reference strain of chloroquine-sensitive Plasmodium falciparum (3D7) were maintained in a 1.25% suspension of human red blood cells cultured in RPMI 1640 medium (pH 7.3) supplemented with 0.5% Albumax II (Gibco Life Technologies, San Diego, CA), 12 mM sodium bicarbonate, 0.2 mM hypoxanthine, and 20 mg/L gentamicin at 37° C., in an atmosphere of 1% O2, 3% CO2 with a balance of nitrogen (Human malaria parasites in continuous culture. Trager W et al., 1976, Science, 193: 673-675). Growth inhibition was quantified using a fluorescence assay utilising the binding of SYBR Green (Novel, rapid, and inexpensive cell-based quantification of antimalarial drug efficacy. Bennett T. N. et al., 2004, Antimicrob. Agents Chemother., 48: 1807-1810) to double stranded DNA, which emits a fluorescent signal at 528 nm after excitation at 485 nm. Mefloquine was used as a drug control to monitor the quality of the assay (Z′=0.6 to 0.8, where Z′ is a measure of the discrimination between the positive and negative controls on a screen plate). Hits were confirmed by full-potency curves with dose-response curves determined from a minimum of 3 independent experiments. Compound bioactivity was expressed as EC50, the effective concentration of compound causing 50% parasite death. All data were processed using IDBS ActivityBase. Raw data was converted into percent inhibition through linear regression by setting the high inhibition control as 100% and the no inhibition control as 0%. Quality control criteria for passing plates were as follows: z′>0.5, S:B>3, % CV(no inhibition control)<15. The formula used to calculate z′ is
# Curve fitting was carried out using the following 4 parametric equation:
# where A=% inhibition at bottom, B=% inhibition at top, C=EC50, D=slope, x=inhibitor concentration and y=% inhibition. If curve definition was poor, B was fixed to 100.
# [5] = PK parameters in rat (IV and PO); format: in vivo; conditions: for PK parameters (rat): F: 1 mg/kg IV and 3 mg/kg PO; for clearance / half-life: Sprague Dawley, plasma, IV arm, 1 mg/kg; for clearance: read-out: PK parameters (rat): Cl; for half-life: read-out: PK parameters (rat): t1/2
# Procedure: Swiss Albino male mice or Sprague Dawley rats (TCGLS, India) were kept under a 12/12 h light/dark cycle, 22±2° C. temp, 50±20% RH with free access to food and water ad libitum. Mice were selected randomly/based on body weight/age and fasted for 4 h before dosing and until 2 h after dosing. Three mice were used per route of administration. For IV determination (1 mg/kg, dose volume 5 ml/kg) the dose was administered by injection into the lateral tail vein (rats are anaesthetized using 3% v/v isoflurane: oxygen mixture). For PO determination (3 mg/kg, dose volume 10 ml/kg) the dose was administered by oral gavage in conscious animals.
# as §4
SMILES,microsomal CLint at 1 μM [1],microsomal CLint at 1 μM [2],PK parameters (mouse): F [3],clearance [3],half-life [3],EC50 [4],PK parameters (rat): F [5],clearance [5],half-life [5]
"N#Cc1cc(NC(=O)[C@H]2c3ccccc3C(=O)N(CC(F)(F)F)[C@@H]2c2ccc(OC3CC3)nc2)ccc1F (single isomer, unassigned) [(1a)]",< 3 µL/min/mg,< 10 µL/min/mg,F = 79%,2.17 mL/min/kg,17 h,19 nM,F = 107%,1 mL/min/kg,26 h
"N#Cc1cc(NC(=O)[C@H]2c3ccccc3C(=O)N(CC(F)(F)F)[C@@H]2c2cnc(C(F)(F)F)nc2)ccc1F [(9a), (3S,4S)—N-(3-cyano-4-fluorophenyl)-1-oxo-2-(2,2,2-trifluoroethyl)-3-(2-(trifluoromethyl)pyrimidin-5-yl)-1,2,3,4-tetrahydroisoquinoline-4-carboxamide]",< 3 µL/min/mg,10.1 µL/min/mg,F = 92%,3.17 mL/min/kg,14 h,103 nM,F = 65%,1.33 mL/min/kg,22 h
"N#Cc1cc(NC(=O)[C@H]2c3ccccc3C(=O)N(CC(F)(F)F)[C@@H]2c2cccnc2)ccc1F [(+) SJ-733, 4-Isoquinolinecarboxamide, N-(3-cyano-4-fluorophenyl)-1,2,3,4-tetrahydro-1-oxo-3-(3-pyridinyl)-2-(2,2,2-trifluoroethyl)-, (3S,4S)-, reference compound]",140 µL/min/mg,37 µL/min/mg,F = 66%,70 mL/min/kg,1.1 h,145 nM,F = 75%,13.3 mL/min/kg,7.7 h

# Source: patent US12509439B2, “Anti-malarial agents” (UNIVERSITY OF KENTUCKY RESEARCH FOUNDATION, priority 2020, dated 2025)
